Reference: patent US7129379B2, “3-amino-propoxphenyl derivatives (l)” (William John Louis, Austin and Repatriation Medical Centre, priority 1996, dated 2006)

What was measured:
[1] = molecular target: T1, β1 adrenoreceptor (guinea-pig atria) (Cavia porcellus, UniProt H0W3H1); assay: Isoprenaline dose-response in isolated guinea-pig atria (pA2); conditions: isolated guinea-pig atria, antagonism of isoprenaline, 37° C.; for Kb: read-out: Guinea Pig, pA2 Atria, B1 (converted)
T1 construct: the atria is dissected from the ventricles; from tissue; host or cells: isolated guinea-pig atria (organ bath)
From the text: (§1) Tissue preparation: The animals are killed by a rapid blow to the head followed by cervical dislocation. The chest is opened and the heart and trachea removed and placed in carbonated Krebs-Ringer-Bicarbonate solution (Krebs). Blood is carefully massaged from the chambers of the heart (see L. H. Tung, G. P. Jackman, B. Campbell, S. Louis, D. Iakovidis & W J Louis, J. Cardiovasc. Pharmacol, 21, (2), 484–488, 1993).
(§2) All extraneous tissue is carefully dissected from the heart, and the atria is dissected from the ventricles. A suture with a loop is tied to each atrium and used to suspend the tissue from an organ bath rod. The other loop is attached to a force transducer loaded with 1 g force. The atria are then maintained in the bath with oxygenated (5% Carbogen) Krebs at 37° C. with changes of Krebs at 10 minute intervals for 50 min. Isoprenaline dose response curves are then measured by addition of isoprenaline in increasing doses from 10^−11 M until a plateau in the response is observed (ca 10^−5.5 M). Doses are increased at two minute intervals and maximum force of contraction and heart rate are recorded. At the end of the dose response curve, the organ bath is flushed with fresh Krebs and washed three times every 10 minutes for 50 minutes. The dose of test drug is then added to the organ bath and allowed to equilibrate for 10 minutes. The isoprenaline does-response curve is then repeated. After washing the atria with Krebs for a further 50 minutes as before, the control does-response curve is repeated in the absence of drug.
(§3) The data is used to calculate the pA2 values against atria and trachea (see Mackay, J. Pharm. Pharmacol., 30, 312–313, 1978). […] The ratio of the values indicates the selectivity of each compound.

[2] = system: β1 adrenoreceptor (guinea-pig atria); assay: as above; conditions: β1 (atria) versus β2 (trachea), from the pA2 values
From the text: as §1, §2, §3

[3] = molecular target: T2, β2 adrenoreceptor (guinea-pig trachea) (Cavia porcellus, UniProt Q8K4Z4); assay: Isoprenaline relaxation of carbachol-contracted isolated guinea-pig trachea (pA2); conditions: isolated guinea-pig tracheal rings, carbachol 10^-6 M contraction, 37° C.; for Kb: read-out: Guinea Pig, pA2 Trachea, B2 (converted)
T2 construct: five rings 1–2 mm in width are cut from the trachea; from tissue; host or cells: isolated guinea-pig tracheal rings (organ bath)
From the text: as §1
All extraneous tissue is dissected away and five rings 1–2 mm in width are cut from the trachea and mounted in sequence on loose loops. The rings are suspended from an isometric transducer set at a resting force of 1.0 g. The rings are then incubated in an organ bath at 37° C. in oxygenated (5% Carbogen) Krebs with 3 changes of Krebs every 10 min for 50 min. Carbachol 10^−6 M is then added to the bath to induce a contraction. Once the contractile force is stable, relaxation is induced by addition of increasing doses of isoprenaline (10^−8 to 10^−5 M) to produce the control dose-response curve. The tissue is then washed in three changes of Krebs every 10 min for 50 min before addition of the drug. After 10 minutes incubation carbachol is added once more and a fresh dose-response to isoprenaline measured. After a further wash of 50 min the control curve is repeated.
as §3

[4] = Duration of beta blockade after intravenous infusion in conscious rats (heart rate response to isoprenaline); format: in vivo, Sprague-Dawley rats; conditions: Sprague-Dawley, rat, plasma, iv; conscious male rats, after stopping i.v. infusion; time for inhibition of isoprenaline heart rate response to fall by 50%; read-out: Estimated Plasma Half Life
Procedure: (§4) Healthy male Sprague-Dawley rats were prepared under anaesthesia with indwelling catheters in the carotid artery and jugular vein and allowed to recover for at least 24 h. On the day of the experiment, the arterial catheter was attached to a flexible swivel and then to a pressure transducer for the continuous recording of heart rate and blood pressure. The venous catheters were attached to an infusion pump for drug administration or to a syringe for bolus injections of isoprenaline ([…]). The catheters were suspended out of the animal's way and the rat was allowed to move freely in a small covered enclosure isolated from outside disturbance. When the BP and HR were stable isoprenaline boluses were given at intervals of 10 minutes until the maximum responses in HR were reproducible (±10%). The doses were repeated for at least 40 minutes and the last 5 readings were considered to constitute the baseline response. The doses were continued at the same interval throughtout the test period of a further 150 minutes. Approximately 3.5 minutes before the next dose of isoprenaline the infusion of the test compound was started, to allow for dead volume in the infusion line, and continued for a further 33.5 minutes.
(§5) Rats were used for more than one experiment if their catheters remained patent with daily flushing with heparinised saline, but at least 24 hours separated each experiment.
(§6) Thus rats with the left carotid artery and left jugular vein cannulated can be studied in the conscious state. This allows continuous recording of heart rate and blood pressure before and after intravenous infusions of beta blocking drugs in selected doses. The duration of beta blockade following cessation of an intravenous infusion of a beta blocking drug can be followed by studying the time taken for the increase in heart rate produced by a standard dose of isoprenaline to return to control values following cessation of the beta blocking drug infusion. The maximum recorded inhibition of the heart rate response to isoprenaline during the infusion of the test drug is estimated, and the pharmacodynamic half-life is the time taken for this inhibition to fall by 50% following the cessation of infusion of the drug.
(§7) The half-life of action of the compounds in the systemic circulation as determined as described above in vivo in rats is indicated in Table 3.

[5] = system: heart rate response to isoprenaline; assay: Duration of beta blockade after intravenous infusion in conscious rats (heart rate response to isoprenaline); format: in vivo, Sprague-Dawley rats; conditions: conscious male rats, after stopping i.v. infusion; time for inhibition of isoprenaline heart rate response to fall by 50%
Procedure: as §4, §5, §6, §7

T1 sequence (H0W3H1 1-470): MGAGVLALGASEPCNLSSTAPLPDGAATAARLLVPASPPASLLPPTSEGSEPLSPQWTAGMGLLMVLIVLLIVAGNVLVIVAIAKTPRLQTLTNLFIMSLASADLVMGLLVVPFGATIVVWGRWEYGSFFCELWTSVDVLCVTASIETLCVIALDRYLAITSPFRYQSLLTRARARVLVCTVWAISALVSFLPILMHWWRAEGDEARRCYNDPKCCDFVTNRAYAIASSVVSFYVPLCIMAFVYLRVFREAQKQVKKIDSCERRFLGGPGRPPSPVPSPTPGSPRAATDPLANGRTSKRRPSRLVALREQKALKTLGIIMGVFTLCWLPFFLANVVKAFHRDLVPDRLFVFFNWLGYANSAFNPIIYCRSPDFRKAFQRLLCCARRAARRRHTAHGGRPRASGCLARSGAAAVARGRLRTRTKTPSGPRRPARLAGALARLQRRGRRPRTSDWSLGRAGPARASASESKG
T2 sequence (Q8K4Z4 whole entry): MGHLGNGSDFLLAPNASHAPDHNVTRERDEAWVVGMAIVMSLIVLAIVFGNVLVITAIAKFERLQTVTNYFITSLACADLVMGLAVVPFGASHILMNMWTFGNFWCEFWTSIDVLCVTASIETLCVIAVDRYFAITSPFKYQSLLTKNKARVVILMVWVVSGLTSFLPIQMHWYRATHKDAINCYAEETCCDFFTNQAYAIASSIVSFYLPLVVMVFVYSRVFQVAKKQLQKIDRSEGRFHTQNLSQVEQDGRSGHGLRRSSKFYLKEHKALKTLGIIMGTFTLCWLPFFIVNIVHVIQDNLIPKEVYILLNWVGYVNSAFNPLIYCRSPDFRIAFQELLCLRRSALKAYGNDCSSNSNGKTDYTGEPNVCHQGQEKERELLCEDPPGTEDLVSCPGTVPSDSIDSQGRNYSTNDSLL

Compound	Kb [1] [nM]	Selectivity [2]	Kb [3] [µM]	half-life [4] [min]	melting point [°C]	Guinea Pig, pA2 Atria, B1 [1]	Guinea Pig, pA2 Trachea, B2 [3]	Estimated Plasma Half Life [5] [min]
COc1ccc(OCCNCC(O)COc2ccc(OCCOCC(C)C)cc2C#N)cc1 (racemic) [Example 2, 1-(2-cyano-4-(2-(2-methylpropoxy)ethoxy)phenoxy)-2-hydroxy-3-(2-(4-methoxyphenoxy)ethylamino)propane]	39.8	1000	39.8	~17	69 to 71			
COc1ccc(CCNCC(O)COc2ccc(OCCOCC3CC3)cc2C#N)cc1OC (racemic) [Example 4, 1-(2-cyano-4-(2-cyclopropylmethoxyethoxy)phenoxy)-2-hydroxy-3-(2-(3,4-dimethoxyphenyl)ethylamino)propane]	50.1	794	39.8	~15	84 to 86			
COCCOc1ccc(OCC(O)CNCCOc2ccc(OC)cc2)cc1 (racemic) [Example 5, 1-(4-(2-methoxyethoxy)phenoxy)-2-hydroxy-3-(2-(4-methoxyphenoxy)ethylamino)propane]	100	501	50.1	10 to 20	113 to 115			
CCOCCOc1ccc(OCC(O)CNCCc2ccc(OC)c(OC)c2)cc1 (racemic) [Example 7, 1-(4-(2-ethoxyethoxy)phenoxy)-2-hydroxy-3-(2-(3,4-dimethoxyphenyl)ethylamino)propane]	63.1	>501	> 31.6	~10	140 to 143			
CCOCCOc1ccc(OC[C@@H](O)CNCCc2ccc(OC)c(OC)c2)cc1 [Example 1, S(−)-1-(4-(2-ethoxyethoxy)phenoxy)-2-hydroxy-3-(2-(3,4-dimethoxyphenyl)ethylamino)propane]		2512				7.7	4.3	10 to 20
